In one test the test system is intact HepG2 cells. In words: Rotenone Oxygraph Assay (high-resolution respirometry). The conditions noted are these: 1 μM rotenone, 10 μM compound. In kind it is cell-based, human. Here is the method: The Oxygraph-2k (O2k, OROBOROS INSTRUMENTS, Austria) was used for measurements of respiration of intact cells. The respirometry was performed in Dulbecco's Modified Eagle Medium (DMEM) high glucose without supplements. All experiments were performed at 37° C.
HepG2 cells (ATCC collection code HB-8065™) were cultured in 10 cm^2 culture dishes in DMEM high glucose medium supplemented with 10% fetal bovine serum (FBS) and 100 units/mL penicillin and 100 μg/mL streptomycin until approximately 90% confluence was reached. Immediately prior to performing the respirometric assay, the cells were washed with media without FBS, trypsinized and resuspended in DMEM high glucose without FBS.
The final concentration of intact cells in the O2k-chamber was 0.5.10^6/mL. After stabilization of respiration, the Complex I inhibitor, rotenone, at 1 μM final concentration was added to inhibit electron flux via Complex I. Then, compound to be tested was added at 10 μM final concentration, and the change in respiration rate of intact cells was monitored.

Another test relates to Nrf-2 responsive genes. The test can be described thus: Nrf-2 Activation Assay (Nrf-2 Assay). In kind it is cell-based, human. Conditions: FIG. 7; 1 μM, 24 hours. Here is the method:
This assay was developed internally and was designed to determine if the novel test compounds disclosed herein active Nrf-2 and thereby promote resolution of inflammation by the mechanism believed to be responsible for the activity of omaveloxolone.
Briefly, GM03665 Eriedreich Ataxia patient fibroblasts were grown in 12 Well Plates (TC Cell+F) (Sarstedt, Nümbrecht Germany), at a density of 12×10^4 cells/per well in DMEM/F12 (Gibco, ThermoFisher Scientific, Waltham, MA, USA) cell media supplemented with 10% FBS and 1% Pen/Strep. Cells were left to rest overnight at 37° C. in a humidified atmosphere with 5% CO2 to allow attachment of the cells to the culture plate. Before continuing assay visual inspection of each well was done by light microscopy to detect any possible bacterial and fungal contamination. […] After incubation, cell media was removed and total RNA from the cells was isolated using E.Z.N.A.® Total RNA Kit I (Omega Bio-tek, Norcross, Georgia, USA) spin columns, and first-strand cDNA synthesis was carried out using a High Capacity cDNA Reverse Transcription Kit (Applied Biosystems™, Foster City, CA) following the manufacturer's instructions. qPCR analysis of gene expression was performed by mixing SYBR® Green Master Mix (Applied Biosystems™) with synthesized cDNA and forward and reverse primers. […] (60 cycles), and 95° C. for 60 seconds, followed by melt curve analysis at 72-95° C., 0.3° C./sec. The relative expression levels for each gene were calculated with the ΔΔCt method and normalized to the expression of REEP5 and SNRPD3 genes.

The target of another test is lipoxygenase-15 enzyme (Glycine max (Soybean) (Glycine hispida), UniProt P08170). In words: Lipoxygenase-15 Assay (LO-15 Assay). Conditions: reduced forms tested. The format is biochemical.
For test [1], the system named is frataxin deficient fibroblasts (Friedreich's ataxia patient, GM03665). The format is cell-based.
Test [2] relates to HepG2 human hepatocarcinoma cells. In words: Rotenone ATP Assay (Complex I by-pass). In kind it is cell-based. Conditions: summary statements also cover the Oxygraph assay. The method, then:
This assay has been adapted from Haefeli R H, Erb M, Gemperli A C, Robay D, Courdier Fruh I, et al. (2011) NQO1-Dependent Redox Cycling of Idebenone: Effects on Cellular Redox Potential and Energy Levels. PLOS ONE 6 (3): e17963. HepG2 human hepatocarcinoma cells were co-incubated with the electron transport chain Complex I toxin rotenone+/−compounds of interest and the corresponding effect on ATP synthesis was measured with a bioluminescent substrate.
In brief, HepG2 cells were plated at 25,000 cells per well in low glucose (1 gram/Liter) DMEM medium+10% fetal calf serum and incubated for 24 hours. The following day, the media was decanted and subsequently replaced with glucose free/serum free DMEM which has been supplemented with 50 micromolar rotenone and compound of interest. Serial dilutions of compound were prepared in 3× dilutions beginning at 25 micromolar. The cells were incubated for 60 minutes in a humidified tissue culture incubator. Following incubation, ATP levels were quantified via bioluminescent assay (Promega […] Glo Assay kit) and readings were captured on a standard microplate reader.
ATP bioluminescence is plotted versus the log of compound of interest and data were used to generate EC50 values. Curve fitting was performed using a sigmoidal dose response curve fit function (GraphPad Prism software).
Robustness of curve fit was assessed as a quality control measure, with an R squared value of at least 0.80 being required for a successful curve fit. Compounds of interest showing an increase in ATP bioluminescence relative to vehicle control were verified in an independent biological replicate of n=3 technical replicates per dose.
This assay is a direct measure of the ability of compounds of interest to restore ATP production under conditions of inhibition of Complex I of the mitochondrial electron transport chain. As the majority of ATP produced via the electron transport chain is thought to derive from Complex I activity, significant impairment in Complex I function has dire biological consequences. Of note, Complex I mutations are thought to drive pathophysiology in multiple mitochondrial diseases, including Leigh syndrome and Leber's Hereditary Optic Neuropathy (LHON), while diminished Complex I activity and the resultant attenuation of ATP production has been shown in neurodegenerative diseases, including Friedreich's Ataxia, Parkinson's Disease and Huntington's Disease.

The test system of test [3] is GM03665 cells (fibroblasts from a subject with Friedreich's ataxia). The test can be described thus: RSL3 Toxicity Assay (RSL3 Assay). In kind it is cell-based, human. The method, then:
In brief, GM03665 cells (Coriell Institute) were seeded in 96-well plates (Sarstedt) in DMEM cell culture media containing 10% Fetal Bovine serum and 1% Penicillin-Streptomycin (Pen-Strep) antibiotic mix at the amount of 2×10^4/mL (100 μL or 2×10^3 cells per well). Cells were left to rest overnight at 37° C. in a humidified atmosphere with 5% CO2 to allow attachment of the cells to the culture plate. Test compounds were prepared as DMSO stocks (10 mM) and were serially diluted in cell culture media to obtain 2× working solutions. Cell media was discarded and replaced by 50 μL of test compound solutions or cell media with vehicle for control wells. Within 15 minutes, 2× working solution (4 μM) of 1S,3R-RSL3 (CAS #1219810-16-8, Sigma-Aldrich) (diluted from 5 mM DMSO stock in cell culture media) was added. Final reaction volume was 100 μL and final DMSO concentration in reaction was kept below 0.2% (v/v) and equal in all wells. Final RSL3 concentration was 2 μM and test compound final concentrations in reaction were up to 1000 nM. After 24 hours of incubation cell viability was assessed by MTT test. MTT (Sigma-Aldrich) solution 1 mg/mL in 1×PBS (pH=7,4) was prepared 1 hour before the assay and filtered through Filtropur S 0.2 filters (Sarstedt). Cell media with test compounds was discarded and 100 μL of MTT solution was added to cells. The plates were incubated for 2 hours at +37° C. Thereafter, the MTT solution was removed and 100 μL of isopropanol was added to dissolve sediment. Absorption at 570 and 650 nm was measured using Hidex Sense microplate reader.

This note sets out measurements from patent US20240400529A1, “COMPOSITIONS AND METHODS FOR THE PREVENTION AND/OR TREATMENT OF MITOCHONDRIAL DISEASE, INCLUDING FRIEDREICH'S ATAXIA” (Stealth BioTherapeutics Inc., priority 2019, published 2024).

Entries after “also recorded” stand apart in the source; their conditions may differ.

For the compound `CC1=C(C)C(=O)C(CC[C@](C)(O)CC/C=C(\C)CC/C=C(\C)CCC=C2COC2)=C(C)C1=O` [Compound E, 2-((R,6E,10E)-3-hydroxy-3,7,11-trimethyl-14-(oxetan-3-ylidene)tetradeca-6,10-dien-1-yl)-3,5,6-trimethylcyclohexa-2,5-diene-1,4-dione], the “Rotenone Oxygraph Assay % Increase (Table 7)” value in the test on intact HepG2 cells is on record as 37.9 +/− 10.7%. Further, the “activation of Nrf-2 responsive genes / pathway, in words” value in the test with Nrf-2 responsive genes is “do not activate”. In addition, the “lipoxygenase-15 inhibition, in words” value on lipoxygenase-15 enzyme is recorded as “outside of the range of the assay”. In test [1], the “protection from BSO induced cell death / ferroptosis, in words” value is reported as “possess both activities; also recorded: able to prevent ferroptotic cell death; also recorded: active”. Further, the “Complex I by-pass activity / restoring ATP production, in words” value in test [2] was “possess both activities”. Besides, the “activity in the RSL3 Assay, in words” value in test [3] is given as “active; also recorded: able to prevent ferroptotic cell death”.

As to `CC1=C(C)C(=O)C(CC[C@](C)(O)CCCCCCCCC(F)(F)F)=C(C)C1=O` [Compound N, (R)-2,3,5-trimethyl-6-(12,12,12-trifluoro-3-hydroxy-3-methyldodecyl)cyclo-hexa-2,5-diene-1,4-dione], the “Rotenone Oxygraph Assay % Increase (Table 7)” value in the test with intact HepG2 cells is given as 44.8 +/− 10.3%. Also, in the test with Nrf-2 responsive genes, the “activation of Nrf-2 responsive genes / pathway, in words” value was “do not activate”. The “lipoxygenase-15 inhibition, in words” value at lipoxygenase-15 enzyme is “effective inhibitors”. The “protection from BSO induced cell death / ferroptosis, in words” value in test [1] is “possess both activities; also recorded: able to prevent ferroptotic cell death; also recorded: active”. For the same compound, in test [2], the “Complex I by-pass activity / restoring ATP production, in words” value is on record as “possess both activities”. Besides, in test [3], the “activity in the RSL3 Assay, in words” value is given as “active; also recorded: able to prevent ferroptotic cell death”.
